How the values were obtained:
[1] = test system: mouse embryonic fibroblast; conditions: cited from earlier work
OxyR = OxyR (Escherichia coli, UniProt P0ACQ4); assay: In vitro transcription and primer extension with avicin-modified OxyR (katG and oxyS templates); type: biochemical, E. coli; conditions: for relative potency as activator of OxyR (in vitro transcriptional activity): comparison between F094, avicin D and avicin G; for OxyR activation as assessed by in vitro transcriptional activation of katG and oxyS: reduced OxyR, strictly anaerobic conditions, avicins:OxyR 1:10-100:1
Chain of OxyR (P0ACQ4 whole entry): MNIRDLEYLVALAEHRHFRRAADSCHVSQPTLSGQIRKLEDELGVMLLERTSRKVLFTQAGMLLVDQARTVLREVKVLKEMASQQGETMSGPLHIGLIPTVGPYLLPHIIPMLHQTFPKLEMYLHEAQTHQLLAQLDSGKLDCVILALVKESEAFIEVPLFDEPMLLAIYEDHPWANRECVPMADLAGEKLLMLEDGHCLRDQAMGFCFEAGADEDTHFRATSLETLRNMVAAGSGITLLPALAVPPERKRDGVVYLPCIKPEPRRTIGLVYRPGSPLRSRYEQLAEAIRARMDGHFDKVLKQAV
Procedure: Reduction of OxyR. The reduced form of OxyR was generated by addition of a large excess of DTT (200 mM) for 1 h, followed by exhaustive dialysis (25 mM potassium phosphate/250 mM potassiumsulfate/1 mM magnesium sulfate/100 μM DTPA, pH 8) in an anaerobic glove box. Removal of DTT was monitored by the color change after addition of 5,5′-dithionitrobenzoic acid to an aliquot of the dialysis buffer.
Treatment of OxyR with Avicins. Reduced OxyR was treated with a 10-fold molar excess of F094 or purified avicin D or G to generate avicin-modified OxyR. The reaction was performed under anaerobic conditions for 1 h, followed by dialysis.
In Vitro Transcription and Primer Extension. In vitro transcription with the various modified forms of OxyR was performed as described (Kim, S. O., et al. (2002) Cell 109, 383-396). Plasmid pBT22 was used as the katG template and pUCOXYS, a plasmid containing the oxyS-coding region cloned into pUC19, was used as the oxyS template. Where indicated, avicin-modified forms of OxyR were reduced with 200 mM DTT. Primer extension assays were performed by using AMV reverse transcriptase (Promega), according to instructions supplied by the manufacturer.
Avicin modified OxyR was incubated with plasmids containing the katG or oxyS genes followed by primer extension (see Materials and Methods). After primer extension, samples were untreated or treated with DTT before gel analysis. Band intensities were quantified (phosphoimager), and data are plotted at top as percent maximal activation (n=2-3). At bottom, corresponding raw data from an individual experiment are depicted.

[2] = test system: E. coli strain RK4936 (wild-type); assay: Hydroperoxidase I (HPI) assay in crude extracts of treated wild-type bacteria; type: cell-based; conditions: wild-type cells, 100 μM, 60 min
Procedure: (§1) Hydroperoxidase I (HPI) Assay. The peroxidase activity of HPI was measured as described (Hausladen, A. et al. (1996) Cell 86, 719-729), in 50 mM potassium phosphate buffer (pH 7.5) containing 0.1 mM EDTA, 10 mM H2O2, and 0.2 mg/ml o-dianisidine, by measuring the increase in absorbance at 460 nm (Clairborne, A. & Fridovich, I. (1979) Biochemistry 18, 2324-2329). An extinction coefficient of 11.3 mM^−1 cm^−1 was used to calculate the specific activity of HPI ((1993) in Worthington Enzyme Manual: Peroxidase, ed. Worthington, V. (Worthington Biochemical Corporation, Freehold, N.J.)).
(§2) HPI, the enzyme encoded by the katG gene, protects bacterial cells against hydrogen peroxide-induced stress. E. coli strains RK4936 (wild-type) and TA4112 (OxyR-null) were grown aerobically to an A600 of 0.5 and then treated with 100 μM F094 or avicin D or G for 60 min. Cells were harvested by centrifugation, and the peroxidase activity in crude extracts was determined (see Materials and Methods). Wild-type (RK4936) and OxyR-null (TA4112) strains of bacteria were treated with avicins and assayed for HPI activity.

[3] = test system: E. coli strain TA4112 (OxyR-null); assay: Hydroperoxidase I (HPI) assay in crude extracts of treated OxyR-null bacteria; type: cell-based; conditions: OxyR-null cells, 100 μM, 60 min
Procedure: as §1, §2

Structure (SMILES)	decrease in cyclin D1 protein levels ([1]; NAC treatment)	increase in p27 protein levels ([1]; NAC treatment)	increase in intracellular low-molecular-weight thiols ([1]; treatment for 12 h)	relative potency as activator of OxyR (in vitro transcriptional activity) (OxyR)	OxyR activation as assessed by in vitro transcriptional activation of katG and oxyS (OxyR)	HPI activity [2]	HPI activity [3]
CC(=O)N[C@@H](CS)C(=O)O [NAC, N-acetyl-L-cysteine]	70%	3-4 fold	6 fold	–	–	–	–
C=C[C@](C)(O)CC/C=C(\CO)C(=O)O[C@H]1[C@H](O)[C@@H](O)[C@H](O[C@@](C)(C=C)CC/C=C(\CO)C(=O)O[C@H]2C[C@]3(C(=O)O[C@@H]4O[C@H](CO)[C@@H](O)[C@H](O)[C@H]4O[C@@H]4O[C@@H](C)[C@H](O[C@@H]5O[C@@H](CO)[C@H](O)[C@H]5O)[C@@H](O[C@@H]5O[C@H](CO)[C@@H](O)[C@H](O)[C@H]5O)[C@H]4O)[C@H](O)C[C@]4(C)C(=CC[C@@H]5[C@@]6(C)CC[C@H](O[C@@H]7O[C@H](CO[C@@H]8O[C@H](C)[C@H](O)[C@H](O)[C@H]8O[C@@H]8OC[C@@H](O)[C@H](O)[C@H]8O)[C@@H](O)[C@H](O)[C@H]7NC(C)=O)C(C)(C)[C@@H]6CC[C@]54C)[C@@H]3CC2(C)C)O[C@@H]1C [avicin D]	–	–	–	more potent activators than avicin G	resulted in OxyR activation	doubled HPI activity	no increase in activity
C=C[C@](C)(O)CC/C=C(\C)C(=O)O[C@H]1[C@H](O)[C@@H](O)[C@H](O[C@@](C)(C=C)CC/C=C(\CO)C(=O)O[C@H]2C[C@]3(C(=O)O[C@@H]4O[C@H](CO)[C@@H](O)[C@H](O)[C@H]4O[C@@H]4O[C@@H](C)[C@H](O[C@@H]5O[C@@H](CO)[C@H](O)[C@H]5O)[C@@H](O[C@@H]5O[C@H](CO)[C@@H](O)[C@H](O)[C@H]5O)[C@H]4O)[C@H](O)C[C@]4(C)C(=CC[C@@H]5[C@@]6(C)CC[C@H](O[C@@H]7O[C@H](CO[C@@H]8O[C@H](C)[C@H](O)[C@H](O)[C@H]8O[C@@H]8OC[C@@H](O)[C@H](O)[C@H]8O)[C@@H](O)[C@H](O)[C@H]7NC(C)=O)C(C)(C)[C@@H]6CC[C@]54C)[C@@H]3CC2(C)C)O[C@@H]1C [avicin G]	–	–	–	lower	resulted in OxyR activation	doubled HPI activity	no increase in activity
